Patent publication US11014934B2, “Antiseptic drug” (AO “TATKHIMFARMPREPARATY”, priority 2017, dated 2021)

Assays:
Format in all cases: cell-based
Rh. Oryzae = experiment: Sensitivity of microscopic fungi in solution (colonies after exposure)
Protocol: For the preparation of inoculum, were respectively used pure (2-5) days cultures of yeast and mycelial fungi, grown on Saburo's dense nutrient broth. Inoculum for plating was prepared in different ways, depending on the type of fungi. Thus, yeast crops (C. albicans) were prepared by washing the culture from an agar stroke. Cultures of mycelial fungi (Rh. oryzae, Asp. fumigatus) were pre-degraded in a pounder. A suspension of microorganisms was prepared in a sterile isotonic sodium chloride solution, bringing the inoculum density to 5 UNITS (GISK [State Research Institute of Standardization and Control] named after L. A. Tarasevich) or according to the McFarland standard 1 UNIT with a concentration of at least 1×10^6 CFU/ml, considering that the size of the fungal elements is approximately 10 times the size of bacteria (this provided the possibility of creating a mixture of biocide with suspension, the concentration of microorganisms of the order of 1×10^5 CFU/ml).
Solutions of compound I, miramistin, and benzalkonium chloride in working concentrations (0.1%, 0.2%, 0.3%) were poured into sterile 0.9 ml tubes. 0.1 ml of microbial suspension was added to test tubes with disinfectant solutions and mixed by shaking for several seconds. The exposition lasted for 1, 5, and 15 minutes. After required temporary exposure for action of the disinfectant, 0.5 ml of the neutralizer solution was added and mixed by shaking.
Then, 0.1 ml of the mixture was inoculated on a dense nutrient medium and the plates with inoculate were placed in a thermostat with a temperature of 27° C. for (2-4) days for yeast and (5-7) days for mycelial fungi, respectively.
After the time required for the cultivation of microorganisms of this species, the results were counted according to the number of colonies grown on the Petri dish. In the absence of growth, the time for culturing microorganisms was increased by a factor of 2. The grown colonies were subjected to microscopy.
The tested substances were studied on clinical and archival strains of yeast and mycelial fungi. As comparison drugs, drugs commonly used in clinical practice were used: miramistin and benzalconium chloride. After the required exposure time for action of the disinfectant, a series of 0.1 ml mixture was aseptically plated on the surface of a dense nutrient medium in Petri dishes. After the time of cultivation of microorganisms, the results were counted according to the number of colonies grown on the Petri dish.

[1] = tested on: Escherichia coli CDC F-50; experiment: Disinfectant activity in suspension test
Protocol: (§1) To prepare a bacterial suspension of the culture, microorganisms grown in dense nutrient medium for (18-24) hours were washed off with a sterile isotonic sodium chloride solution. The bacterial suspension of each microorganism was brought to a turbidity corresponding to a concentration of 1×10^9 cells/ml, which corresponds to 3 units of McFarland. For experiments with protein loading, a solution of bovine serum albumin (BSA) was added to the bacterial suspension to a final concentration of 0.2%.
(§2) Solutions of compound I, miramistin, and benzalkonium chloride were poured at a working concentration (0.1%, 0.2%) into a 24-well plate of 0.9 ml per well: 0.1 ml of microbial suspension was added to wells with disinfectant solutions and mixed by shaking for several seconds.
(§3) At the end of 1, 5, and 15 minutes of exposure, 0.5 ml of a universal neutralizer was added and mixed by shaking to deactivate the drugs and stop their antimicrobial activity. The neutralizer consisted of tween-80 (Sigma-Aldrich)—3.0 ml, saponin (DIAEM)—3.0 g, histidine—0.1 g, cysteine—0.1 g in 100 ml of phosphate-buffered solution.
(§4) The liquid was inoculated on a dense nutrient medium (Müller-Hinton agar) in 0.1 ml of the mixture, cultivation was carried out (24-48) hours at 37° C. Müller-Hinton broth was prepared from dry media (Mueller Hinton broth, Acumedia, Baltimore), cultivation was carried out on agarized Müller-Hinton broth, which included an additional 2% of agar. The media were autoclaved at 121° C. for 15 minutes.
(§5) After the time required for the cultivation of microorganisms, the results were counted according to the number of colonies grown on the Petri dish. In the absence of growth, the time for culturing microorganisms was increased by a factor of 2 (for example, when the cultivation time was 24 hours, it was left in the thermostat for up to 2 days). The experiment was carried out three times under the same conditions.
(§6) The criterion of efficacy of drugs in suspension is the death of 100% test microorganisms, with a duration of action not more than 30 minutes.

[2] = tested on: Staphylococcus aureus ATCC 209p; experiment: Disinfectant activity in suspension test
Protocol: as §1, §2, §3, §4, §5, §6

[3] = 0.1% solution, exposure 1 min, +BSA
[4] = 0.1% solution, exposure 1 min, −BSA
[5] = 0.1% solution, exposure 5 min, +BSA
[6] = 0.1% solution, exposure 5 min, −BSA
[7] = 0.1% solution, exposure 15 min, +BSA
[8] = 0.1% solution, exposure 15 min, −BSA
[9] = 0.2% solution, exposure 1 min, +BSA
[10] = 0.2% solution, exposure 1 min, −BSA
[11] = 0.2% solution, exposure 5 min, +BSA
[12] = 0.2% solution, exposure 5 min, −BSA
[13] = 0.2% solution, exposure 15 min, +BSA
[14] = 0.2% solution, exposure 15 min, −BSA

Compound | Number of colonies grown in a Petri dish (Rh. Oryzae; exposure 1 min, 0.1% solution) | Inhibition rate (M ± SD) of Escherichia coli CDC F-50 growth [1, 3] [%] | Inhibition rate (M ± SD) of Escherichia coli CDC F-50 growth [1, 4] [%] | Inhibition rate (M ± SD) of Escherichia coli CDC F-50 growth [1, 5] [%] | Inhibition rate (M ± SD) of Escherichia coli CDC F-50 growth [1, 6] [%] | Inhibition rate (M ± SD) of Escherichia coli CDC F-50 growth [1, 7] [%] | Inhibition rate (M ± SD) of Escherichia coli CDC F-50 growth [1, 8] [%] | Inhibition rate (M ± SD) of Escherichia coli CDC F-50 growth [1, 9] [%] | Inhibition rate (M ± SD) of Escherichia coli CDC F-50 growth [1, 10] [%] | Inhibition rate (M ± SD) of Escherichia coli CDC F-50 growth [1, 11] [%] | Inhibition rate (M ± SD) of Escherichia coli CDC F-50 growth [1, 12] [%] | Inhibition rate (M ± SD) of Escherichia coli CDC F-50 growth [1, 13] [%] | Inhibition rate (M ± SD) of Escherichia coli CDC F-50 growth [1, 14] [%] | Inhibition rate (M ± SD) Staphylococcus aureus ATCC 209p [2, 3] [%] | Inhibition rate (M ± SD) Staphylococcus aureus ATCC 209p [2, 4] [%] | Inhibition rate (M ± SD) Staphylococcus aureus ATCC 209p [2, 5] [%] | Inhibition rate (M ± SD) Staphylococcus aureus ATCC 209p [2, 6] [%] | Inhibition rate (M ± SD) Staphylococcus aureus ATCC 209p [2, 7] [%] | Inhibition rate (M ± SD) Staphylococcus aureus ATCC 209p [2, 8] [%] | Inhibition rate (M ± SD) Staphylococcus aureus ATCC 209p [2, 9] [%] | further results
CCCCCCCCCCCC[N+](C)(C)Cc1cnc(C[N+](C)(C)CCCCCCCCCCCC)c2c1COC(CC)O2 (stereo not drawn) [Compound I, 5,8-(Bis(methylene (N, N-dimethyl-N-dodecylammonium))-2-ethyl-4H-[1,3]dioxino [4,5-c]pyridiniumdichloride] | 1 | 99.99 ± 0.005 | 99.99 | 99.99 ± 0.005 | 99.99 ± 0.005 | 100 | 100 | 99.99 ± 0.005 | 99.99 | 99.99 | 99.99 | 100 | 100 | 99.99 | 99.99 | 99.99 | 99.99 | 99.99 ± 0.005 | 99.99 ± 0.005 | 99.99 ± 0.005 | death of Staphylococcus aureus ATCC 209p ([2]; 0.1% solution): 99.99%; Inhibition rate (M ± SD) Staphylococcus aureus ATCC 209p [2, 10]: 100%; Inhibition rate (M ± SD) Staphylococcus aureus ATCC 209p [2, 11]: 99.99 ± 0.005%; Inhibition rate (M ± SD) Staphylococcus aureus ATCC 209p [2, 12]: 100%; Inhibition rate (M ± SD) Staphylococcus aureus ATCC 209p [2, 13]: 100%; Inhibition rate (M ± SD) Staphylococcus aureus ATCC 209p [2, 14]: 100%
CCCCCCCCCCCCCC(=O)NCCC[N+](C)(C)Cc1ccccc1.O.[Cl-] [Miramistin, benzyldimethyl [3-(myristoylamino)propyl]-ammonium chloride monohydrate] | 12 | 99.98 ± 0.005 | 99.99 | 99.99 | 99.99 ± 0.005 | 99.99 ± 0.005 | 100 | 99.99 | 99.99 | 99.99 | 99.99 ± 0.005 | 100 | 100 | 99.99 | 99.9 | 99.99 | 99.99 | 99.99 ± 0.005 | 99.99 | 99.99 | Number of colonies grown in a Petri dish (Rh. Oryzae; exposure 1 min, 0.2% solution): 2; Number of colonies grown in a Petri dish (Rh. Oryzae; exposure 1 min, 0.3% solution): 1; Number of colonies grown in a Petri dish (Rh. Oryzae; exposure 5 min, 0.1% solution): 10; Number of colonies grown in a Petri dish (Rh. Oryzae; exposure 5 min, 0.2% solution): 4; Number of colonies grown in a Petri dish (Rh. Oryzae; exposure 15 min, 0.1% solution): 2; Inhibition rate (M ± SD) Staphylococcus aureus ATCC 209p [2, 10]: 99.9%; Inhibition rate (M ± SD) Staphylococcus aureus ATCC 209p [2, 11]: 99.99 ± 0.005%; Inhibition rate (M ± SD) Staphylococcus aureus ATCC 209p [2, 12]: 99.99%; Inhibition rate (M ± SD) Staphylococcus aureus ATCC 209p ([2]; 0.2% solution, exposure 15 min, +BSA, listed as miramistin, monohydrate): < 100%; Inhibition rate (M ± SD) Staphylococcus aureus ATCC 209p ([2]; 0.2% solution, exposure 15 min, +BSA, monohydrate): 99.99 ± 0.005%; Inhibition rate (M ± SD) Staphylococcus aureus ATCC 209p [2, 14]: 100%
